These results are taken from patent US20150306096A1, “8'-HYDROXY-DIHYDROERGOTAMINE COMPOUNDS AND COMPOSITIONS” (MAP Pharmaceuticals, Inc., priority 2012, published 2015).

The structures appear in SMILES notation.

The target of assay [1] is T1, human Serotonin 5-HT1B receptor (Homo sapiens, UniProt P28222).
T1 construct: purchased Euroscreen
Description: GTPγS functional assay. To be noted: read-out: Functional activity (agonist). Type of assay: biochemical. Here is the method: Functional profiling of agonist and antagonist activities of 8′-OH DHE on human Adrenergic α1D, Dopamine D2L, and Serotonin 5-HT1B, 5-HT1D, 5-HT1F, 5-HT3, 5-HT4e and 5-HT5A receptors (compared against the parent (DHE) molecule) was carried out as follows.
The SPA 35S-GTPγS tests were conducted with Euroscreen membrane preparations […]. The HTRF assays were conducted with recombinant cell lines. The receptor accession numbers, cellular background and reference compounds are as reported below in Table 10.
(3) 8′-OH DHE was tested for agonist and antagonist activity at the human Serotonin 5-HT1B and Serotonin 5-HT1D receptors using GTPγS assay (in triplicate) at the following nanomolar concentrations: […]
The assay procedure was carried out as follows. […] The plates were then centrifuged for 10 minutes at 2,000 rpm and counted for 1 min/well with a Perkin Elmer TopCount reader.
Agonist activity of the test compounds was expressed as a percentage of the activity of the reference agonist at its EC100 concentration. Antagonist activity of the test compounds was expressed as a percentage of the inhibition of the reference agonist activity at its EC80 concentration. Dose-response data from the test compounds were analyzed with XLfit (IDBS) software using nonlinear regression applied to a sigmoidal dose-response model and the following equation: […]

Assay [2] deals with Glutamate (mGlu3/mGlu5/mG1u7). Description: Glutamate receptor aequorin / cAMP assays. In kind it is cell-based, human. To be noted: mGlu receptors. Here is the method:
Additional receptor agonist/agonist activity assessments were performed using the 8′-OH DHE test compound. Table 12 contains a summary of the cell lines (CHO-K1/HEK293 transfected with relevant human receptor) and the assays performed to detect any agonist or antagonist activity. […]
For agonist testing, 30 μL of cell suspension was mixed with 30 μL of the test 8′-OH DHE compound or reference agonist in a 384-well plate. The resulting emission of light was recorded using the FDSS 6000 luminometer. […] The resulting emission of light was recorded using the FDSS 6000 luminometer.
Cells expressing the human recombinant receptor of interest were grown in media without antibiotic and detached by gentle flushing with PBS-EDTA (5 mM EDTA), recovered by centrifugation and resuspended in assay buffer (KRH: 5 mM KCl, 1.25 mM MgSO4, 124 mM NaCl, 25 mM HEPES, 13.3 mM glucose, 1.25 mM KH2PO4, 1.45 mM CaCl2, 0.5 g/L BSA). […] Lysis buffer was added and after one hour incubation, cAMP concentrations were determined according to the manufacturer specification with the HTRF kit. […] Lysis buffer was added and after 1 hour incubation, cAMP concentrations were determined according to the manufacturer specification, with the HTRF kit. […]

T1 sequence (P28222 whole entry): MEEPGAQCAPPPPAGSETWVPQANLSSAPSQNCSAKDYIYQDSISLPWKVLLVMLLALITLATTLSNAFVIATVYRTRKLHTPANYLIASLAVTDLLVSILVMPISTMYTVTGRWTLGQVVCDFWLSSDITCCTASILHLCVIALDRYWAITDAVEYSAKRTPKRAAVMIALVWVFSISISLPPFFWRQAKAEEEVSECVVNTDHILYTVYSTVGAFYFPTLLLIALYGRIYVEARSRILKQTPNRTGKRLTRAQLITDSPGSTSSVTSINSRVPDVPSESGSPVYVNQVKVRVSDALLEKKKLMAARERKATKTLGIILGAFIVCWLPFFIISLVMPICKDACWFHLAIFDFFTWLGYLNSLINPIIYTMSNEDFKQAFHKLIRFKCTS

As to `CN1C[C@H](C(=O)N[C@]2(C)O[C@@]3(O)[C@@H]4CCC(O)N4C(=O)[C@H](Cc4ccccc4)N3C2=O)C[C@@H]2c3cccc4[nH]cc(c34)C[C@H]21` (some centres unmarked) [8′-OH DHE, 8′-Hydroxy-Dihydroergotamine], the EC50 in assay [1] was found to be 0.73 nM. In assay [2], the “Activity (Agonism: EC50; Antagonism: IC50)” value is listed as “Inactive”.
